Activity calls are given as the source filed them. The rule behind the calls is not given here.
How the values were obtained:
Staphylococcus aureus [1] = test: Antibacterial activity against methicillin-resistant Staphylococcus aureus ATCC 43300 assessed as inhibition of bacterial growth incubated for 20 to 24 hrs by broth micro dilution method; type: functional; conditions: time 20-24 hrs
Bacillus subtilis [2] = test: Antibacterial activity against Bacillus subtilis CMCC (B) 63501 assessed as inhibition of bacterial growth incubated for 20 to 24 hrs by broth micro dilution method; type: functional; conditions: time 20-24 hrs
Enterococcus faecalis = test: Antibacterial activity against Enterococcus faecalis ATCC 29212 assessed as inhibition of bacterial growth incubated for 20 to 24 hrs by broth micro dilution method; type: functional; conditions: time 20-24 hrs
Staphylococcus aureus [3] = test: Antibacterial activity against methicillin-resistant Staphylococcus aureus ATCC BAA41 assessed as fractional inhibitory concentration index incubated for 24 hrs by checker board assay; type: functional
Enterococcus faecium [4] = test: Bactericidal activity against Enterococcus faecium ATCC 700221 assessed as inhibition of bacterial growth incubated for 24 hrs by resazurin dye based microtiter plate assay; type: functional
Escherichia coli [5] = test: Antibacterial activity against Escherichia coli ATCC 25922 assessed as inhibition of bacterial growth incubated for 20 to 24 hrs by broth micro dilution method; type: functional; conditions: time 20-24 hrs
Staphylococcus aureus [6] = test: Bactericidal activity against Staphylococcus aureus ATCC 43300 assessed as inhibition of bacterial growth incubated for 24 hrs by resazurin dye based microtiter plate assay; type: functional
Staphylococcus aureus [7] = test: Antibacterial activity against methicillin-resistant Staphylococcus aureus ATCC BAA-1720 assessed as inhibition of bacterial growth incubated for 20 to 24 hrs by broth micro dilution method; type: functional; conditions: time 20-24 hrs
Staphylococcus aureus [8] = test: Induction of morphological changes in Staphylococcus aureus ATCC 29213 assessed as enlargement of cell size at 0.5 times MIC for 4 hrs by microscopic analysis; type: functional, organism-based
[9] = biological target: T1, Cell division protein FtsZ (Staphylococcus aureus) (UniProt P0A031); test: Binding affinity to Staphylococcus aureus FtsZ assessed as decrease in beta turn structure at 8 ug/ml incubated for 30 mins by circular dichroism method; conditions: dose 8.0 µg/ml
T1 sequence (whole entry): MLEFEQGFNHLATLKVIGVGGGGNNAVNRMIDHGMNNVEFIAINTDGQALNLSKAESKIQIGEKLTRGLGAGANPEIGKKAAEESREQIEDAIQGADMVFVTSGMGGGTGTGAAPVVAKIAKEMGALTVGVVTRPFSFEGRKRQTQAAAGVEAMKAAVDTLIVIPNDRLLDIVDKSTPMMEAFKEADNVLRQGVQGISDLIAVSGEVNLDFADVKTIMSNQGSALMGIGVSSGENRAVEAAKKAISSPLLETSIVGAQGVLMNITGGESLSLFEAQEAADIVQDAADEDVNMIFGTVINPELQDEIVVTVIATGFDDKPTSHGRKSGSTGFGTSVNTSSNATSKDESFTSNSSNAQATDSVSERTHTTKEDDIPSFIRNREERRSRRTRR

Acinetobacter baumannii = test: Antibacterial activity against multi-drug resistant Acinetobacter baumannii ATCC 19606 assessed as inhibition of bacterial growth incubated for 20 to 24 hrs by broth micro dilution method; type: functional; conditions: time 20-24 hrs
[10] = biological target: T1, Cell division protein FtsZ (Staphylococcus aureus); test: Binding affinity to Staphylococcus aureus FtsZ assessed as equilibrium binding constant by isothermal titration calorimetry
[11] = biological target: T2, Cell division protein FtsZ (Staphylococcus aureus, UniProt P0A031); test: Binding affinity to Staphylococcus aureus FtsZ assessed as dissociation constant by isothermal titration calorimetry
T2 sequence (P0A031 whole entry): T1 sequence (whole entry)

[12] = biological target: T1, Cell division protein FtsZ (Staphylococcus aureus); test: Binding affinity to Staphylococcus aureus FtsZ assessed as decrease in random coil structure at 8 ug/ml incubated for 30 mins by circular dichroism method; conditions: dose 8.0 µg/ml
[13] = biological target: T1, Cell division protein FtsZ (Staphylococcus aureus); test: Induction of Staphylococcus aureus FtsZ polymerization expressed in Escherichia coli BL21 (DE3) assessed as increase in absorbance at 2 to 8 ug/ml in presence of GTP by microplate reader method; conditions: dose 2-8 µg/ml, DDE = dose-dependent effect
Staphylococcus aureus [14] = test: Antibacterial activity against vancomycin-intermediate Staphylococcus aureus Mu50 assessed as inhibition of bacterial growth incubated for 20 to 24 hrs by broth micro dilution method; type: functional; conditions: time 20-24 hrs
Klebsiella pneumoniae = test: Antibacterial activity against NDM-1 expressing Klebsiella pneumoniae ATCC BAA 2470 assessed as inhibition of bacterial growth incubated for 20 to 24 hrs by broth micro dilution method; type: functional; conditions: time 20-24 hrs
[15] = test system: Staphylococcus epidermidis; test: Antibacterial activity against Staphylococcus epidermidis ATCC 12228 assessed as inhibition of bacterial growth incubated for 20 to 24 hrs by broth micro dilution method; type: functional; conditions: time 20-24 hrs
[16] = Ratio of MBC for bactericidal activity against Enterococcus faecium ATCC 700221 to MIC for antibacterial activity against Enterococcus faecium ATCC 700221; type: functional
Staphylococcus aureus [17] = test: Antibacterial activity against methicillin-resistant Staphylococcus aureus ATCC 33592 assessed as inhibition of bacterial growth incubated for 20 to 24 hrs by broth micro dilution method; type: functional; conditions: time 20-24 hrs
[18] = Ratio of MBC for bactericidal activity against Bacillus subtilis CMCC (B) 63501 to MIC for antibacterial activity against Bacillus subtilis CMCC (B) 63501; type: functional
Enterococcus faecium [19] = test: Antibacterial activity against Enterococcus faecium ATCC 49624 assessed as inhibition of bacterial growth incubated for 20 to 24 hrs by broth micro dilution method; type: functional; conditions: time 20-24 hrs
Bacillus subtilis [20] = test: Bactericidal activity against Bacillus subtilis CMCC (B) 63501 assessed as inhibition of bacterial growth incubated for 24 hrs by resazurin dye based microtiter plate assay; type: functional
[21] = Ratio of MBC for bactericidal activity against Staphylococcus aureus ATCC 29213 to MIC for antibacterial activity against Staphylococcus aureus ATCC 29213; type: functional
Staphylococcus aureus [22] = test: Synergistic antibacterial activity against methicillin-resistant Staphylococcus aureus ATCC BAA41 assessed as inhibition of bacterial growth incubated for 24 hrs in presence of methicillin by checker board assay; type: functional
Pseudomonas aeruginosa = test: Antibacterial activity against […] Pseudomonas aeruginosa ATCC 27853 assessed as inhibition of bacterial growth incubated for 20 to 24 hrs by broth micro dilution method; type: functional; conditions: time 20-24 hrs
Bacillus subtilis [23] = test: Induction of morphological changes in Bacillus subtilis CMCC (B) 63501 assessed as elongation of bacterial cell at 0.5 times MIC for 4 hrs (reference value: 3 to 5 um) by microscopic analysis; type: functional
[24] = Ratio of MBC for bactericidal activity against Staphylococcus aureus ATCC 43300 to MIC for antibacterial activity against Staphylococcus aureus ATCC 43300; type: functional
Staphylococcus aureus [25] = test: Bactericidal activity against Staphylococcus aureus ATCC 29213 assessed as inhibition of bacterial growth incubated for 24 hrs by resazurin dye based microtiter plate assay; type: functional
Staphylococcus aureus [26] = test: Antibacterial activity against methicillin-resistant Staphylococcus aureus ATCC BAA41 assessed as inhibition of bacterial growth incubated for 24 hrs by checker board assay; type: functional
Staphylococcus aureus [27] = test: Antibacterial activity against Staphylococcus aureus ATCC 29213 assessed as inhibition of bacterial growth incubated for 20 to 24 hrs by broth micro dilution method; type: functional; conditions: time 20-24 hrs
[28] = biological target: T1, Cell division protein FtsZ (Staphylococcus aureus); test: Binding affinity to Staphylococcus aureus FtsZ assessed as increase in alpha helix structure at 8 ug/ml incubated for 30 mins by circular dichroism method; conditions: dose 8.0 µg/ml
Enterococcus faecium [29] = test: Antibacterial activity against vancomycin-resistant Enterococcus faecium clinical isolate assessed as inhibition of bacterial growth incubated for 20 to 24 hrs by broth micro dilution method; type: functional; conditions: time 20-24 hrs
Enterococcus faecium [30] = test: Antibacterial activity against vancomycin resistant Enterococcus faecium ATCC 700221 assessed as inhibition of bacterial growth incubated for 20 to 24 hrs by broth micro dilution method; type: functional; conditions: time 20-24 hrs
Escherichia coli [31] = test: Antibacterial activity against NDM-1 expressing Escherichia coli ATCC BAA2469 assessed as inhibition of bacterial growth incubated for 20 to 24 hrs by broth micro dilution method; type: functional; conditions: time 20-24 hrs
Escherichia coli [32] = test: Antibacterial activity against Escherichia coli ATCC 8739 assessed as inhibition of bacterial growth incubated for 20 to 24 hrs by broth micro dilution method; type: functional; conditions: time 20-24 hrs
[33] = biological target: T1, Cell division protein FtsZ (Staphylococcus aureus); test: Binding affinity to Staphylococcus aureus FtsZ assessed as decrease in other structure at 8 ug/ml incubated for 30 mins by circular dichroism method; conditions: dose 8.0 µg/ml

CN(C)c1ccc(/C=C/c2cc(N3CCCCC3)c3ccccc3[n+]2C)cc1.[I-]
MIC (Staphylococcus aureus [1]): 1 µg/mL | MIC (Bacillus subtilis [2]): 2 µg/mL | MIC (Enterococcus faecalis): 4 µg/mL | fractional inhibitory concentration index (FICI) (Staphylococcus aureus [3]): 0.25 | MBC (Enterococcus faecium [4]): 4 µg/mL | MIC (Escherichia coli [5]): 16 µg/mL | MBC (Staphylococcus aureus [6]): 4 µg/mL | MIC (Staphylococcus aureus [7]): 2 µg/mL | Activity (Staphylococcus aureus [8]): Active | Activity [9]: Active | MIC (Acinetobacter baumannii): 64 µg/mL | Kb [10]: 2.02 10^5/M | Kd [11]: 2490 nM | Activity [12]: Active | Activity [13]: Dde | MIC (Staphylococcus aureus [14]): 2 µg/mL | MIC (Klebsiella pneumoniae): > 64 µg/mL | MIC [15]: 1 µg/mL | Ratio [16]: 4 | MIC (Staphylococcus aureus [17]): 1 µg/mL | Ratio [18]: 2 | MIC (Enterococcus faecium [19]): 8 µg/mL | MBC (Bacillus subtilis [20]): 4 µg/mL | Ratio [21]: >4 | MIC (Staphylococcus aureus [22]): 2 µg/mL | MIC (Pseudomonas aeruginosa): > 64 µg/mL | Activity (Bacillus subtilis [23]): 30 um | Ratio [24]: 4 | MBC (Staphylococcus aureus [25]): 8 µg/mL | MIC (Staphylococcus aureus [26]): 16 µg/mL | MIC (Staphylococcus aureus [27]): 1 µg/mL | Activity [28]: Active | MIC (Enterococcus faecium [29]): 4 µg/mL | MIC (Enterococcus faecium [30]): 1 µg/mL | MIC (Escherichia coli [31]): 64 µg/mL | MIC (Escherichia coli [32]): 64 µg/mL | Activity [33]: Active
